Measured values taken from patent publication US11986471B2, “Compounds and methods of use” (Tango Therapeutics, Inc., priority 2018, dated 2024).

Legend:
PRMT5 [1] = molecular target: T1, PRMT5 (Homo sapiens, UniProt O14744); assay: PRMT5 IC50 assay in the presence of SAM as cofactor; assay type: biochemical
T1 construct: purchased Viva (custom protein)
Outline: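 Enzyme: human PRMT5. Conditions: plus SAM, plus MTA, or cofactor-free. Output: IC50 (μM); Ki via IC50/1.5 (SAM) or IC50/13.5 (MTA).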

HAP1 MTAP-deleted = assay: SDMA in-cell western assay, HAP1 MTAP-deleted cell line; assay type: cell-based; details: for IC50: Homo sapiens, HAP1 MTAP-deleted cell line; for MTAP Intact/Deleted Ratio: IC50 ratio HAP1 MTAP-intact / HAP1 MTAP-deleted
Outline: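 Readout is cellular SDMA signal by in-cell western, with IC50 values derived from it. The cells are MTAP-null HAP1, matched to an isogenic MTAP-intact HAP1 line.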

HAP1 MTAP-intact = assay: SDMA in-cell western assay, HAP1 MTAP-intact cell line; assay type: cell-based; details: Homo sapiens
Outline: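 IC50 values come from SDMA in-cell western staining of HAP1 cells. The MTAP-intact line carries endogenous MTAP, while its MTAP-deleted counterpart lacks MTAP entirely. A selectivity ratio of at least 3 fold marks a compound as MTAP-selective.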

PRMT5 [2] = molecular target: T1, PRMT5; assay: PRMT5 IC50 assay with no cofactor; assay type: biochemical
Outline: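 Results given as IC50 (μM), from which Ki follows by dividing by 1.5 in the SAM condition or by 13.5 in the MTA condition. The ratio of SAM Ki to MTA Ki indicates MTA-cooperative preference.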

PRMT5 [3] = molecular target: T1, PRMT5; assay: PRMT5 IC50 assay in the presence of MTA as cofactor; assay type: biochemical; details: for IC50: PRMT5, MTA as cofactor
Outline: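 Potency against PRMT5 is compared across cofactor states, where IC50 equals Ki×1.5 with SAM present and Ki×13.5 with MTA present.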

[4] = ratio between the Ki in the presence of SAM and the Ki in the presence of MTA
[5] = ratio between Ki in the presence of SAM and Ki in the presence of MTA

T1 sequence (O14744 whole entry): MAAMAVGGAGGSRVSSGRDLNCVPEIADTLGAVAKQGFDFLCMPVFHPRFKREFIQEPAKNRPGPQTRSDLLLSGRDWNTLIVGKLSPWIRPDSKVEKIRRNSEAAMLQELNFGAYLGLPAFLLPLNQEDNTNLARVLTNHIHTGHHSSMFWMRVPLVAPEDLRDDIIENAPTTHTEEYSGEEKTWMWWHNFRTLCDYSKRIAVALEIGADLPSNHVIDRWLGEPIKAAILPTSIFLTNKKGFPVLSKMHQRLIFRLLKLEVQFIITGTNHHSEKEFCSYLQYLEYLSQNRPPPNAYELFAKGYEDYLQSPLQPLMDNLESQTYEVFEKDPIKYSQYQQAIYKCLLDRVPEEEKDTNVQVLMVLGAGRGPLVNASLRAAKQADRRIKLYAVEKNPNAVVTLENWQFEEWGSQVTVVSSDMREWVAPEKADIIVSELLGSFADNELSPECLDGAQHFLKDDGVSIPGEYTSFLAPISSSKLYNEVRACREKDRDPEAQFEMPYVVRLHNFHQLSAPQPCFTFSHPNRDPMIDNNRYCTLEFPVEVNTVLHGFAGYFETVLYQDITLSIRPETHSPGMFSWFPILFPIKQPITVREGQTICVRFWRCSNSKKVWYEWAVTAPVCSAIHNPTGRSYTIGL
T1 sequence (Q9BQA1 whole entry partner): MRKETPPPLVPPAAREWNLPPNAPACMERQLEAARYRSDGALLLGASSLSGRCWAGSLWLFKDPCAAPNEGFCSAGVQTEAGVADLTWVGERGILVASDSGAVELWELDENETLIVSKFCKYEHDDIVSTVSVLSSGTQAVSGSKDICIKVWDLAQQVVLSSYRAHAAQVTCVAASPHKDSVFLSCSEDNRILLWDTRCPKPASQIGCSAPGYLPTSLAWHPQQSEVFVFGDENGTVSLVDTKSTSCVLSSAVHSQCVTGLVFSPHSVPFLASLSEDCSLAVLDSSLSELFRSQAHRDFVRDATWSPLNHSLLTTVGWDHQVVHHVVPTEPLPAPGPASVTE

| SMILES | IC50 (PRMT5 [1]) [nM] | IC50 (HAP1 MTAP-deleted) [µM] | IC50 (HAP1 MTAP-intact) [µM] | IC50 (PRMT5 [2]) [µM] | IC50 (PRMT5 [3]) [nM] | IC50 (PRMT5 [2]; read-out: No Co-factor IC50) [µM] | MTAP Intact/Deleted Ratio (HAP1 MTAP-deleted) | SAM/MTA Ratio (PRMT5 [3]; [4]) | SAM/MTA Ratio (PRMT5 [3]; [5]) |
| --- | --- | --- | --- | --- | --- | --- | --- | --- | --- |
| O=C(NC[C@H](O)CN1CCc2c(ccc(OCc3cnco3)c2Br)C1)c1ccnc(NC2CCC2)c1 [Compound 255, N-[(2S)-3-[5-bromo-6-(oxazol-5-ylmethoxy)-3,4-dihydro-1H-isoquinolin-2-yl]-2-hydroxy-propyl]-2-(cyclobutylamino)pyridine-4-carboxamide] | 500 to 5000 | ≥ 10 | ≥ 10 | – | 50 to 500 | ≥ 5 | C* (an IC50 ratio of less than 3 fold between the IC50 in the HAP1 MTAP-intact cell line and the HAP1 MTAP-deleted cell line) | – | A (a Ki ratio greater than or equal to 10 fold between the Ki in the presence of SAM and the Ki in the presence of MTA) |
| CC(=O)N1CCC(Nc2cc(C(=O)NC[C@H](O)CN3CCc4cc(OCc5cnn[nH]5)ccc4C3)ncn2)CC1 [Compound 257, (S)—N-(3-(6-((1H-1,2,3-triazol-5-yl)methoxy)-3,4-dihydroisoquinolin-2(1H)-yl)-2-hydroxypropyl)-6-((1-acetylpiperidin-4-yl)amino)pyrimidine-4-carboxamide] | 500 to 5000 | 1 to 10 | ≥ 10 | – | 50 to 500 | ≥ 5 | C* (an IC50 ratio of less than 3 fold between the IC50 in the HAP1 MTAP-intact cell line and the HAP1 MTAP-deleted cell line) | – | A (a Ki ratio greater than or equal to 10 fold between the Ki in the presence of SAM and the Ki in the presence of MTA) |
| O=C(NC[C@H](O)CN1CCc2c(ccc(OCc3cnco3)c2Cl)C1)c1ccnc(NC2CC3(C2)CC3(F)F)c1 (some centres unmarked) [Compound 441] | 50 to 500 | 1 to 10 | ≥ 10 | 0.5 to 5 | 50 to 500 | – | C* (an IC50 ratio of less than 3 fold between the IC50 in the HAP1 MTAP-intact cell line and the HAP1 MTAP-deleted cell line) | A (a Ki ratio greater than or equal to 10 fold between the Ki in the presence of SAM and the Ki in the presence of MTA) | – |
| CC(=O)N1CCC(Nc2cc(C(=O)NC[C@@H](O)CN3CCc4cc(OCc5ocnc5C)ccc4C3)ncn2)CC1 [Compound 249, (R)-6-((1-acetylpiperidin-4-yl)amino)-N-(2-hydroxy-3-(6-((4-methyloxazol-5-yl)methoxy)-3N-dihydroisoquinolin-2(1H)-yl)propyl)pyrimidine-4-carboxamide] | 500 to 5000 | ≥ 10 | ≥ 10 | – | 500 to 5000 | ≥ 5 | C* (an IC50 ratio of less than 3 fold between the IC50 in the HAP1 MTAP-intact cell line and the HAP1 MTAP-deleted cell line) | – | A (a Ki ratio greater than or equal to 10 fold between the Ki in the presence of SAM and the Ki in the presence of MTA) |
| O=C(NC[C@H](O)CN1CCc2c(ccc(OCc3cnco3)c2Cl)C1)c1ccnc(NC2CCC2)c1 [Compound 194, N-[(2S)-3-[5-chloro-6-(oxazol-5-ylmethoxy)-3,4-dihydro-1H-isoquinolin-2-yl]-2-hydroxy-propyl]-2-(cyclobutylamino)pyridine-4-carboxamide] | 500 to 5000 | ≥ 10 | ≥ 10 | – | 50 to 500 | ≥ 5 | C* (an IC50 ratio of less than 3 fold between the IC50 in the HAP1 MTAP-intact cell line and the HAP1 MTAP-deleted cell line) | – | – |
| CC(=O)N1CCC(Nc2cc(C(=O)NC[C@H](O)CN3CCc4c(ccc(OCc5cnco5)c4C)C3)ncn2)CC1 [Compound 198, 6-[(1-acetyl-4-piperidyl)amino]-N-[(2S)-2-hydroxy-3-[5-methyl-6-(oxazol-5-ylmethoxy)-3,4-dihydro-1H-isoquinolin-2-yl]propyl]pyrimidine-4-carboxamide] | 50 to 500 | 1 to 10 | ≥ 10 | – | 50 to 500 | ≥ 5 | C* (an IC50 ratio of less than 3 fold between the IC50 in the HAP1 MTAP-intact cell line and the HAP1 MTAP-deleted cell line) | – | A (a Ki ratio greater than or equal to 10 fold between the Ki in the presence of SAM and the Ki in the presence of MTA) |

The next lines start with results.

| IC50 (PRMT5 [1]) [nM] | IC50 (HAP1 MTAP-deleted) [µM] | IC50 (HAP1 MTAP-intact) [µM] | IC50 (PRMT5 [2]) [µM] | IC50 (PRMT5 [3]) [nM] | IC50 (PRMT5 [2]; read-out: No Co-factor IC50) [µM] | SMILES | MTAP Intact/Deleted Ratio (HAP1 MTAP-deleted) | SAM/MTA Ratio (PRMT5 [3]; [4]) | SAM/MTA Ratio (PRMT5 [3]; [5]) |
| --- | --- | --- | --- | --- | --- | --- | --- | --- | --- |
| 50 to 500 | 1 to 10 | ≥ 10 | 0.5 to 5 | 50 to 500 | – | CC(=O)N1CCC(Nc2cc(C(=O)NC[C@H](O)CN3CCc4c(ccc(OCc5ocnc5C)c4C)C3)cc(N3CCN(C)CC3)n2)CC1 [Compound 593] | B* (an IC50 ratio greater than or equal to 3 fold but lower than 10 fold between the IC50 in the HAP1 MTAP-intact cell line and the HAP1 MTAP-deleted cell line) | A (a Ki ratio greater than or equal to 10 fold between the Ki in the presence of SAM and the Ki in the presence of MTA) | – |
| 50 to 500 | 1 to 10 | ≥ 10 | ≥ 5 | 50 to 500 | – | Cc1ncoc1COc1ccc2c(c1C)CCN(C[C@@H](O)CNC(=O)c1cc(NC3COC3)nc(N3CCN(C(C)C)CC3)n1)C2 [Compound 444, N-[(2S)-2-hydroxy-3-{5-methyl-6-[(4-methyl-1,3-oxazol-5-yl)methoxy]-1,2,3,4-tetrahydroisoquinolin-2-yl}propyl]-6-[(oxetan-3-yl)amino]-2-[4-(propan-2-yl)piperazin-1-yl]pyrimidine-4-carboxamide] | C* (an IC50 ratio of less than 3 fold between the IC50 in the HAP1 MTAP-intact cell line and the HAP1 MTAP-deleted cell line) | A (a Ki ratio greater than or equal to 10 fold between the Ki in the presence of SAM and the Ki in the presence of MTA) | – |
| 50 to 500 | < 1 | 1 to 10 | 0.05 to 0.5 | < 50 | – | COc1cnc(NC2CCN(C(C)=O)CC2)cc1C(=O)NC[C@H](O)CN1CCc2cc(OCc3ocnc3C)ccc2C1 [Compound 597, (S)-2-((1-acetylpiperidin-4-yl)amino)-N-(2-hydroxy-3-(6-((4-methyloxazol-5-yl)methoxy)-3,4-dihydroisoquinolin-2(1H)-yl)propyl)-5-methoxyisonicotinamide] | B* (an IC50 ratio greater than or equal to 3 fold but lower than 10 fold between the IC50 in the HAP1 MTAP-intact cell line and the HAP1 MTAP-deleted cell line) | A (a Ki ratio greater than or equal to 10 fold between the Ki in the presence of SAM and the Ki in the presence of MTA) | – |
| 50 to 500 | 1 to 10 | 1 to 10 | 0.5 to 5 | 50 to 500 | – | Cc1ncoc1COc1cc2c(cc1F)CN(C[C@@H](O)CNC(=O)c1ccc3c(c1)CCN(C(=O)c1ccc(Br)cc1)C3)CC2 [Compound 578, 2-(4-bromobenzoyl)-N-[(2S)-3-[7-fluoro-6-[(4-methyloxazol-5-yl)methoxy]-3,4-dihydro-1H-isoquinolin-2-yl]-2-hydroxy-propyl]-3,4-dihydro-1H-isoquinoline-6-carboxamide] | B* (an IC50 ratio greater than or equal to 3 fold but lower than 10 fold between the IC50 in the HAP1 MTAP-intact cell line and the HAP1 MTAP-deleted cell line) | A (a Ki ratio greater than or equal to 10 fold between the Ki in the presence of SAM and the Ki in the presence of MTA) | – |
| 50 to 500 | < 1 | 1 to 10 | – | < 50 | 0.5 to 5 | Cc1ncoc1COc1ccc2c(c1)CCN(C[C@@H](O)CNC(=O)c1ccnc(NC3CCN(C(=O)C4CC4)CC3)c1)C2 [Compound 624, (S)-2-((1-(cyclopropanecarbonyl)piperidin-4-yl)amino)-N-(2-hydroxy-3-(6-((4-methyloxazol-5-yl)methoxy)-3,4-dihydroisoquinolin-2(1H)-yl)propyl)isonicotinamide] | A* (an IC50 ratio greater than or equal to 10 fold between the IC50 in the HAP1 MTAP-intact cell line and the HAP1 MTAP-deleted cell line) | – | A (a Ki ratio greater than or equal to 10 fold between the Ki in the presence of SAM and the Ki in the presence of MTA) |
| 50 to 500 | 1 to 10 | ≥ 10 | 0.5 to 5 | 50 to 500 | – | CC(=O)N1CCC(Nc2cccc(C(=O)NC[C@H](O)CN3CCc4c(ccc(OCc5cnco5)c4C)C3)c2)CC1 [Compound 529, 3-[(1-acetylpiperidin-4-yl)amino]-N-[(2S)-2-hydroxy-3-{5-methyl-6-[(1,3-oxazol-5-yl)methoxy]-1,2,3,4-tetrahydroisoquinolin-2-yl}propyl]benzamide] | B* (an IC50 ratio greater than or equal to 3 fold but lower than 10 fold between the IC50 in the HAP1 MTAP-intact cell line and the HAP1 MTAP-deleted cell line) | A (a Ki ratio greater than or equal to 10 fold between the Ki in the presence of SAM and the Ki in the presence of MTA) | – |
